Experimental data: patent publication US9952217B2, “Anti-HBc quantitative detection method and uses thereof in monitoring and controlling disease progression of chronic hepatitis B patient and in predicting therapeutic effect” (priority 2012, dated 2018)

Test system: hepatitis B virus
Assay: Adefovir dipivoxil therapy of HBeAg positive chronic hepatitis B patients (Cohort A)
Assay type: in vivo, human
Method: Patient cohort A: 49 HBeAg positive patients, all patients accepted therapy of adefovir dipivoxil (10 mg/day), for 96 weeks in total, and were follow-up visited for 12 weeks after stop of therapy.
The above patients before therapy all met the criteria of disease adaptable for therapy as recommended by the Guide of Clinical Management of Chronic Hepatitis B of APASL: HBsAg was positive for consecutive 1 year or more, HBeAg was positive and anti-HBe was negative, serum ALT level was higher than 2 times of ULN; the patients were chosen to exclude possibility of having accompanied infection of hepatitis C virus (HCV), human immunodeficiency virus (HIV), hepatitis D virus (HDV), hepatitis E virus (HEV), and have no clinical medicine evidence of having accompanied autoimmune or metabolic liver diseases.
It was performed according to the method described in section 4.2 of Example 4.
It was performed according to the method described in section 4.3 of Example 4.
Main therapeutic end was defined when HBeAg seroconversion occurred at follow-up visit end.
All statistic methods were performed according to those described in Example 4.

## CC(C)(C)C(=O)OCOP(=O)(COCCn1cnc2c(N)ncnc21)OCOC(=O)C(C)(C)C [adefovir dipivoxil]
108 weeks versus therapy end (96 weeks)
  average increase (bounce) of serum anti-HBc level after therapy: 0.29 log10 IU/ml
HBc-High group (baseline anti-HBc ≥29000 IU/ml, n=16)
  decrease of average HBV DNA level at follow-up end versus before therapy: 3.48±2.24 log10 copies/mL
HBc-Low group (baseline anti-HBc <29000 IU/ml, n=33)
  decrease of average HBV DNA level at follow-up end versus before therapy: 1.69±2.05 log10 copies/mL
All 49 patients, 10 mg/day for 96 weeks, follow-up 12 weeks after stop
  therapeutic effective rate (HBeAg seroconversion at follow-up visit end): 18.4%
Baseline anti-HBc 9000-29000 IU/ml (n=19)
  response rate (HBeAg seroconversion after therapy): 10.5%
Baseline anti-HBc <9000 IU/ml (16 patients as printed)
  patients with HBeAg seroconversion after therapy: none
Baseline anti-HBc ≥29000 IU/ml, three-group analysis
  response rate (HBeAg seroconversion after therapy): 43.8%
Baseline to 60 weeks after beginning of therapy
  decline of average serum anti-HBc level per 12 weeks: 0.20±0.05 log10 IU/mL
Cutoff 29000 IU/ml baseline anti-HBc
  ratio of occurrence rates (Risk Ratio, RR) of HBeAg seroconversion between high and low anti-HBc groups: 7.22
Patients with baseline anti-HBc greater than 29000 IU/ml (n=16)
  effective rate (HBeAg seroconversion at follow-up visit end): 43.8%
Patients with baseline anti-HBc less than 29000 IU/ml (n=33)
  effective rate (HBeAg seroconversion at follow-up visit end): 6.1%
